According to US20090239887A1, “Method of resolution and antiviral activity of 1,3-oxathiolane nucleoside enantiomers” (Emory University, priority 1990, published 2009):
Where two headings read alike, the source gives them in different places.

Experiments:
[1] = Cytotoxicity in mitogen stimulated uninfected human PBM cells (trypan blue exclusion); type: cell-based
Text: The cells were counted after 6 days using a hemacytometer and the trypan blue exclusion method, as described by Schinazi et al., Antimicrobial Agents and Chemotherapy, 22(3), 499 (1982).

[2] = tested on: hepG2 cells
Experimental: (§1) Studies were undertaken using radiolabeled agent in order to follow the intracellular profiles of the parent drug and metabolites detected within the cell. All studies were conducted in duplicate. […] Cells are exposed to the drug for 2, 6, 12 and 24 hours. At these timepoints, the medium is removed and the cells are washed two times with cold Hank's balanced salt solution. Extraction is performed with addition of 0.2 ml of 60% cold methanol/water and stored overnight at −70° C. The following morning, the suspensions are centrifuged and extractions are repeated two times for 0.5 hours at −70° C. The total supernatants (0.6 ml) are lyophilized to dryness. The residues are resuspended in 250 μl of water and aliquots comprising between 50 and 100 μl are analyzed by HPLC. Quantitation of intracellular parent drug and metabolic derivatives are conducted by HPLC. Because of the potential acid lability of some compounds, a buffer system close to physiological pH is used for the separation of the metabolites.

[3] = tested on: human PBM cells; conditions: 10 μM radiolabeled FTC, 2-24 hours
Experimental: as §1

[4] = tested on: CEM cells; conditions: human
[5] = tested on: HIV-1 (strain LAV); assay: microbe, parasite or virus in culture; type: cell-based
Text: It is often desirable to screen a number of racemic mixtures of nucleosides as a preliminary step to determine which warrant further resolution into enantiomerically enriched components and evaluation of antiviral activity. The ability of nucleosides to inhibit HIV can be measured by various experimental techniques. The technique used herein, and described in detail below, measures the inhibition of viral replication in phytohemagglutinin (PHA) stimulated human peripheral blood mononuclear (PBM) cells infected with HIV-1 (strain LAV). The amount of virus produced is determined by measuring the virus-coded reverse transcriptase enzyme. The amount of enzyme produced is proportional to the amount of virus produced.
A. Three-day-old phytohemagglutinin-stimulated PBM cells (10^6 cells/ml) from hepatitis B and HIV-1 seronegative healthy donors were infected with HIV-1 (strain LAV) at a concentration of about 100 times the 50% tissue culture infectious dose (TICD 50) per ml and cultured in the presence and absence of various concentrations of antiviral compounds.
B. Approximately one hour after infection, the medium, with the compound to be tested (2 times the final concentration in medium) or without compound, was added to the flasks (5 ml; final volume 10 ml). AZT was used as a positive control.
C. The cells were exposed to the virus (about 2×10^5 dpm/ml, as determined by reverse transcriptase assay) and then placed in a CO2 incubator. HIV-1 (strain LAV) was obtained from the Center for Disease Control, Atlanta, Ga. The methods used for culturing the PBM cells, harvesting the virus and determining the reverse transcriptase activity were those described by McDougal et al. (J. Immun. Meth. 76, 171-183, 1985) and Spira et al. (J. Clin. Meth. 25, 97-99, 1987), except that fungizone was not included in the medium (see Schinazi, et al., Antimicrob. Agents Chemother. 32, 1784-1787 (1988); Id., 34:1061-1067 (1990)).
D. On day 6, the cells and supernatant were transferred to a 15 ml tube and centrifuged at about 900 g for 10 minutes. Five ml of supernatant were removed and the virus was concentrated by centrifugation at 40,000 rpm for 30 minutes (Beckman 70.1 Ti rotor). The solubilized virus pellet was processed for determination of the levels of reverse transcriptase. Results are expressed in dpm/ml of sampled supernatant. Virus from smaller volumes of supernatant (1 ml) can also be concentrated by centrifugation prior to solubilization and determination of reverse transcriptase levels.

[6] = tested on: HBV (hepatitis B virus)
[7] = tested on: Vero cells; conditions: African green monkey

In the case of `Nc1nc(=O)n(C2CSC(CO)O2)cc1F` (racemic) [DLS-022, 2-hydroxymethyl-5-(5-fluorocytosin-1-yl)-1,3-oxathiolane], the IC50 at 6 days [1] is reported as over 100000 nM, the “metabolism to triphosphate in human liver cells” value ([2]; hepG2 cells) is reported as “metabolize a large percentage” and the “uptake by hepG2 cells” value ([2]; human liver cells) is reported as “taken up by hepG2 cells in large amounts”. The “uptake in human lymphocytes” value [3] was “readily taken up”, the toxicity [4] was over 100 µM and the DPM/ml ([5]; 0.0001 μM) was 73,755 DPM/ml. The DPM/ml ([5]; 0.005 μM) was 83,005 DPM/ml, the DPM/ml ([5]; 0.01 μM) was 60,465 DPM/ml and the DPM/ml ([5]; 0.05 μM) was 34,120 DPM/ml. The DPM/ml ([5]; 0.1 μM) was 14,160 DPM/ml, the DPM/ml ([5]; 0.5 μM) was 18,095 DPM/ml and the DPM/ml ([5]; 1 μM) was 7,555 DPM/ml. The DPM/ml ([5]; 5 μM) was 7,940 DPM/ml, the DPM/ml ([5]; 10 μM) was 5,810 DPM/ml and the inhibition at 0.0001 µM ([5]; Human immunodeficiency virus 1, PBMC, 0.0001 μM, read-out: % Inhibition (Corrected)) was 26.6%. For the same compound, the EC50 ([5]; Human immunodeficiency virus 1, PBMC, human PBM cells infected with HIV-1 (strain LAV), Table 3, read-out: Antiviral EC50) was 11 nM, the EC50 ([5]; Human immunodeficiency virus 1, PBMC, human PBM cells infected with HIV-1, enantiomers isolated by chiral HPLC (Example 3), read-out: EC50) was 18 nM and the EC50 ([5]; Human immunodeficiency virus 1, PBMC, human PBM cells infected with HIV-1, enantiomers resolved by method of Example 2 (FIG. 5), read-out: EC50) was 17 nM. The inhibition at 0.005 µM ([5]; Human immunodeficiency virus 1, PBMC, 0.005 μM, read-out: % Inhibition (Corrected)) was 16.3%, the inhibition at 0.01 µM ([5]; Human immunodeficiency virus 1, PBMC, 0.01 μM, read-out: % Inhibition (Corrected)) was 41.3% and the inhibition at 0.05 µM ([5]; Human immunodeficiency virus 1, PBMC, 0.05 μM, read-out: % Inhibition (Corrected)) was 70.4%. For the same compound, the inhibition at 0.5 µM ([5]; Human immunodeficiency virus 1, PBMC, 0.5 μM, read-out: % Inhibition (Corrected)) was 88.1%, the inhibition at 1 µM ([5]; Human immunodeficiency virus 1, PBMC, 1 μM, read-out: % Inhibition (Corrected)) was 99.7% and the inhibition at 5 µM ([5]; Human immunodeficiency virus 1, PBMC, 5 μM, read-out: % Inhibition (Corrected)) was 99.3%. The inhibition at 10 µM ([5]; Human immunodeficiency virus 1, PBMC, 10 μM, read-out: % Inhibition (Corrected)) was 102%, the “activity against HBV” value [6] was “effective” and the toxicity [7] was over 100 µM.
